Experimental data as given in ChEMBL document CHEMBL1201862, “PubChem BioAssay data set” (2004).
Active and inactive are the calls of the source.

Key:
[1] = target: Neuropeptide Y receptor type 1 (Homo sapiens, UniProt P25929); assay: Fluorescence-based counterscreen for agonists of NPY-Y2: cell-based high-throughput dose response assay for agonists of NPY-Y1.; type: functional
[2] = target: Neuropeptide Y receptor type 2 (Homo sapiens, UniProt P49146); assay: Fluorescence-based cell-based high-throughput dose response assay for agonists of NPY-Y2. [Related pubchem assays: 1703 (Screening assay (CNGC inhibitors).), 1359 (Screening assay (NPY-Y2 potentiators or agonists).), 1304 (Screening assay (NPY-Y1 potentiators or agonists).), 1710 (Screening assay (NPY-Y2 agonists).), 1791 (Summary AID.)]; type: functional
[3] = Jurkat T cell cytotoxicity, dose response, cytotoxicity control for P. falciparum gametocyte viability project, luminescence (AID 1117277); type: functional, cell-based;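 note: potency reflects loss of cellular ATP meaning fewer viable cells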
[4] = tested on: HEK293; assay: Fluorescence-based counterscreen for potentiators or agonists of NPY-Y2: cell-based high-throughput dose response assay to identify inhibitors of cyclic nucleotide gated ion channel (CNGC) activity. In this assay, the parental HEK293 cell line transfected with a cyclic-nucleotide gated ion channel (CNGC)-based cAMP sensor is used to measure inhibition of isoproterenol-induced CNGC activity by test compound.; type: functional; conditions: Homo sapiens
[5] = P. falciparum late gametocyte killing, dose response, luminescence (AID 1117278); type: functional, cell-based;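 note: gametocytes exposed to compound for 24 hours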
[6] = inhibitors of firefly luciferase expression or activity, dose response, H4 neuroglioma cells, luminescence (AID 1990); type: functional, cell-based
[7] = HIV-1 Env-mediated cell fusion inhibitors, dose response, CCR5-tropic Env (AID 2279); type: functional
[8] = inhibitors of SNCA 5'UTR-driven reporter translation, confirmation, H4 neuroglioma cells, luminescence (AID 1988); type: functional, cell-based
[9] = Luminescence Cell-Based Dose Response HTS to Identify Inhibitors of 5'UTR Stem-Loop Driven Prion Protein mRNA Translation in H4 Neuroglioblastoma Cells. [Related pubchem assays: 1827 (Project Summary), 1813 (Primary HTS)]; type: functional
[10] = target: Vasopressin V1a receptor (Homo sapiens, UniProt P37288); assay: Counterscreen for Oxytocin Receptor (OXTR) agonists: Fluorescence-based cell-based high throughput dose response assay to identify agonists of the vasopressin 1 receptor (V1R). [Related pubchem assays: 2435 (Primary screen (OXTR agonists in singlicate)), 434991 (Counterscreen (V1R agonists in triplicate)), 2482 (Summary (OXTR agonists)) …; type: functional
[11] = target: Oxytocin receptor (Homo sapiens, UniProt P30559); assay: Fluorescence-based cell-based high throughput dose response assay for agonists of the Oxytocin Receptor (OXTR). [Related pubchem assays: 2435 (Primary screen (OXTR agonists in singlicate)), 434991 (Counterscreen (V1R agonists in triplicate)), 2482 (Summary (OXTR agonists)), 434963 (Confirmation screen (OXTR agonists in triplicate))]; type: functional
[12] = Luminescence Cell-Based Dose Retest to Confirm Inhibitors of Cancer Stem Cells. [Related pubchem assays (depositor defined):AID2717, AID2721]; type: functional; conditions: Homo sapiens
[13] = target: Mothers against decapentaplegic homolog 3 (Homo sapiens, UniProt P84022); assay: Smad3 binding inhibitors, lysate ELISA, dose response, cell lysate, secondary confirmation, chemiluminescent ELISA, HEK293 lysate (AID 1058); type: functional
[14] = target: Cytochrome P450 2C9 (Homo sapiens, UniProt P11712); conditions: Potency
[15] = target: Phospholipase A2 (Homo sapiens, UniProt P04054); type: functional;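 note: confirmatory dose-response counterscreen on phospholipase A2, testing hits that came from an ultra-high-throughput screen for ATG4B inhibitors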
[16] = target: T1, Probable nicotinate-nucleotide adenylyltransferase (Staphylococcus aureus (strain N315), UniProt P65502); type: functional, Staphylococcus aureus subsp. aureus N315;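 for IC50 Mean: confirmatory dose-response retesting of NadD inhibitor hits first found in an ultra-high-throughput screen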
[17] = target: T1, Probable nicotinate-nucleotide adenylyltransferase; type: functional, Staphylococcus aureus subsp. aureus N315; conditions: read-out: IC50_Mean
[18] = inhibitors of Bluetongue virus cytopathic effect, confirmation, arbovirus, BSR cells (AID 1250); type: functional;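 note: protection from viral cytopathic effect measured as cell viability by ATP luminescence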
[19] = target: T2, Cysteine protease ATG4B (Homo sapiens, UniProt Q9Y4P1); type: functional;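 note: Fluorescence-based dose-response confirmation assay measuring inhibition of ATG4B activity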
T2 sequence (Q9Y4P1 whole entry): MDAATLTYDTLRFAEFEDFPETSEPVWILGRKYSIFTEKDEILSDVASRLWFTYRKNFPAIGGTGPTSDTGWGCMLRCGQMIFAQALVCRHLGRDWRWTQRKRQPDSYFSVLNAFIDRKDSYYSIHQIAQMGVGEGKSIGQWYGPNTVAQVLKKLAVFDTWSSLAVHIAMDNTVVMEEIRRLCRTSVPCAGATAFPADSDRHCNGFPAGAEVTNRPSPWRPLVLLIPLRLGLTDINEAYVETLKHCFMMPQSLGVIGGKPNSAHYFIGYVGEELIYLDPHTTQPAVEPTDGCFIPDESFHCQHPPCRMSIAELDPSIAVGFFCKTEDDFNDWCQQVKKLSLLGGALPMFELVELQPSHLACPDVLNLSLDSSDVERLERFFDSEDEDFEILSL

[20] = target: Lysosomal acid glucosylceramidase (Homo sapiens, UniProt P04062); assay: Dose response cell-based high throughput screening assay to identify enhancers of beta-glucosidase activity. [Related pubchem assays: 784 ]; type: functional
[21] = tested on: Streptococcus; assay: Group A Streptococcus viability loss, dose response, counter-screen for streptokinase expression inhibitor project, luminescence, BacTiterGlo (AID 1915); type: functional, organism-based;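 note: potency for reduction of bacterial viability or growth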
[22] = tested on: INS1; assay: beta cell apoptosis inhibitors, cytokine rescue, dose response, luminescence, retest (AID 449756); type: functional, cell-based; conditions: Rattus norvegicus;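 note: cell death triggered by IL-1 beta plus TNF-alpha plus IFN-gamma mixture; protective hits raise ATP signal compared with cytokine alone wells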
[23] = insulin promoter down-regulators in MIN6 cells, imaging, high-content screening, mouse beta cells (AID 1628); type: functional
[24] = Artemis endonuclease inhibitor potency, dose response, biochemical, fluorescence intensity (AID 720701); type: functional;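 note: Artemis endonuclease enzyme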
[25] = tested on: Streptococcus sp. 'group A'; assay: growth inhibition of control SK(-) GAS strain, dose response, counter-screen for streptokinase expression inhibitor project, luminescence, kanamycin, BacTiterGlo, confirmation (AID 1900); type: functional, organism-based
[26] = cytotoxicity in MIN6 insulinoma cells, dose response, cytotoxicity control, cell-based, mouse insulinoma (AID 2122); type: functional;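 note: confirmatory high-throughput counterscreen run to flag cytotoxic compounds; mouse MIN-6 beta cells carrying an insulin promoter eGFP reporter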
[27] = target: Serine/threonine-protein phosphatase PP1-alpha catalytic subunit (Homo sapiens, UniProt P62136); assay: PP1 phosphatase inhibitors, dose response, biochemical, fluorescence (AID 2403);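 note: phosphatase turnover of OMFP into fluorescent 3-O-methylfluorescein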
[28] = target: Serine/threonine-protein phosphatase (Homo sapiens, UniProt Q9BPW0); assay: Counterscreen for inhibitors of PP1: fluorescence-based biochemical high throughput dose response assay to identify inhibitors of Protein Phosphatase 5 (PP5). [Related pubchem assays: 2034 (Summary (PP5 inhibitors)), 1987 (PP5 inhibitors in singlate), 2235 (PP1 inhibitors in singlate)]
[29] = target: T3, Eukaryotic translation initiation factor 2-alpha kinase 3 (Homo sapiens, UniProt Q9NZJ5); assay: Dose response cell-based high-throughput screening assay to measure PERK inhibition. [Related pubchem assays: 1416 ]; type: functional
[30] = target: T3, Eukaryotic translation initiation factor 2-alpha kinase 3; assay: Counterscreen assay for PERK inhibitors: Dose response cell-based high throughput screening assay to measure inhibition of PERK at 6 hours. [Related pubchem assays: 1522, 1416 ]; type: functional
[31] = target: Cytochrome P450 2D6 (Homo sapiens, UniProt P10635); assay: qHTS Assay for Inhibitors and Substrates of Cytochrome P450 2D6. [Related pubchem assays: 410 ]; type: ADME; conditions: read-out: Potency
[32] = tested on: HEK293; assay: HEK cell cytotoxicity by LDH release, dose response, cytotoxicity control for IDE activator project, fluorescence, HEK cells (AID 588440); type: functional, cell-based; conditions: Homo sapiens;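 note: cytotoxicity by LDH release measuring loss of membrane integrity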
[33] = target: T4, Insulin-degrading enzyme (Homo sapiens, UniProt P14735); assay: activators of endogenous IDE in HEK cells, dose response, cell-based, fluorescence polarization (AID 588439); type: functional
T4 sequence (P14735 whole entry): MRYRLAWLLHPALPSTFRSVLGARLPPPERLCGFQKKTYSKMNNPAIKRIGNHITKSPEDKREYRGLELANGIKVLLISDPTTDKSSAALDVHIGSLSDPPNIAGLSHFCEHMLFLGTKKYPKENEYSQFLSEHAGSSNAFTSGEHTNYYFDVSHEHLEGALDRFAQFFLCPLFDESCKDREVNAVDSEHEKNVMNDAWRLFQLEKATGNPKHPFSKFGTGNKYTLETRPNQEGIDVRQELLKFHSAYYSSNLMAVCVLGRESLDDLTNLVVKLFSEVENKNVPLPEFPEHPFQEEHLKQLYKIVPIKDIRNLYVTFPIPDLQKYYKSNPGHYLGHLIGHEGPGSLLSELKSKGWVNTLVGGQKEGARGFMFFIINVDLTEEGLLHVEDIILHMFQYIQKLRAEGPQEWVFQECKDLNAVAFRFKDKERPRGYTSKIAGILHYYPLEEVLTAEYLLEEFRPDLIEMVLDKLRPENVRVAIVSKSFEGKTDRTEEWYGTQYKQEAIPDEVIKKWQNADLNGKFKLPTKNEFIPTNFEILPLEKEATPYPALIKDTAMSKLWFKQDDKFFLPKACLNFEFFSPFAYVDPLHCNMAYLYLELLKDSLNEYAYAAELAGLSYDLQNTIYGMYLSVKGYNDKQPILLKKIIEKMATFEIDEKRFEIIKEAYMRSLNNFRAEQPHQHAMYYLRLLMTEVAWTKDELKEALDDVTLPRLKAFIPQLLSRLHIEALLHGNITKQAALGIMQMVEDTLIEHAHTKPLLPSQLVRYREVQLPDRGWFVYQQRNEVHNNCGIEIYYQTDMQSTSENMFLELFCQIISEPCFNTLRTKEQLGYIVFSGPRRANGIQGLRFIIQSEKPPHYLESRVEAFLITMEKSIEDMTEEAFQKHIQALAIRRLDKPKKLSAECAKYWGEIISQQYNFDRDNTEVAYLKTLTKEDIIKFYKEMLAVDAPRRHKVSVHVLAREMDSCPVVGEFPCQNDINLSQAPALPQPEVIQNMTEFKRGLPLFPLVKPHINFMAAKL

[34] = tested on: HEK293; assay: optical interference in Abeta FP readout, dose response, artefact control for IDE activator project, biochemical, fluorescence polarization (AID 588442); type: functional, cell-based; conditions: Homo sapiens
[35] = target: Nonstructural protein 1 (Influenza A virus, UniProt Q194T2); type: functional, Influenza A virus (A/California/07/2009(H1N1))
[36] = target: T4, Insulin-degrading enzyme; assay: activators of recombinant IDE enzyme, dose response, counter-screen for IDE activator project, biochemical, fluorescence polarization (AID 588681)
[37] = target: Ras and Rab interactor 1/Tyrosine-protein kinase ABL1 (Homo sapiens, UniProt P00519+Q13671); type: functional;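 note: biochemical TR-FRET dose-response test measuring inhibition of binding between Rin1 and Abl proteins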
[38] = target: Peroxisome proliferator-activated receptor gamma/Nuclear receptor corepressor 2 (Homo sapiens, UniProt P37231+Q9Y618); type: functional
[39] = target: Photoreceptor-specific nuclear receptor (Homo sapiens, UniProt Q9Y5X4); type: functional;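 note: potency for compounds that break the NR2E3 corepressor complex and count as activators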
[40] = inhibitors of SNCA 5'UTR-driven translation, confirmation, luminescence, H4 neuroglioblastoma cells, dose confirmation (AID 2454); type: functional, cell-based;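 note: H4 neuroglioblastoma cells carrying an alpha-synuclein 5'UTR luciferase reporter; potency for inhibition of the luciferase signal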
[41] = luciferase reporter signal reduction – luminescence, H4-C neuroglioblastoma cells, dose response (AID 2458); type: functional, cell-based;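 note: H4 neuroglioblastoma cells stably carrying a luciferase reporter gene fusion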
[42] = cells; type: functional, cell-based

T1 sequence (P65502 whole entry): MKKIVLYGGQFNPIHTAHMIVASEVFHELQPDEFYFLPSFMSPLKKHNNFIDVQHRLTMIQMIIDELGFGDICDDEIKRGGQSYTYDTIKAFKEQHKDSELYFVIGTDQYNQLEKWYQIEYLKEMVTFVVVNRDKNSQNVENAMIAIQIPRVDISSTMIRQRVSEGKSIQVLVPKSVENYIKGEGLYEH
T3 sequence (Q9NZJ5 whole entry): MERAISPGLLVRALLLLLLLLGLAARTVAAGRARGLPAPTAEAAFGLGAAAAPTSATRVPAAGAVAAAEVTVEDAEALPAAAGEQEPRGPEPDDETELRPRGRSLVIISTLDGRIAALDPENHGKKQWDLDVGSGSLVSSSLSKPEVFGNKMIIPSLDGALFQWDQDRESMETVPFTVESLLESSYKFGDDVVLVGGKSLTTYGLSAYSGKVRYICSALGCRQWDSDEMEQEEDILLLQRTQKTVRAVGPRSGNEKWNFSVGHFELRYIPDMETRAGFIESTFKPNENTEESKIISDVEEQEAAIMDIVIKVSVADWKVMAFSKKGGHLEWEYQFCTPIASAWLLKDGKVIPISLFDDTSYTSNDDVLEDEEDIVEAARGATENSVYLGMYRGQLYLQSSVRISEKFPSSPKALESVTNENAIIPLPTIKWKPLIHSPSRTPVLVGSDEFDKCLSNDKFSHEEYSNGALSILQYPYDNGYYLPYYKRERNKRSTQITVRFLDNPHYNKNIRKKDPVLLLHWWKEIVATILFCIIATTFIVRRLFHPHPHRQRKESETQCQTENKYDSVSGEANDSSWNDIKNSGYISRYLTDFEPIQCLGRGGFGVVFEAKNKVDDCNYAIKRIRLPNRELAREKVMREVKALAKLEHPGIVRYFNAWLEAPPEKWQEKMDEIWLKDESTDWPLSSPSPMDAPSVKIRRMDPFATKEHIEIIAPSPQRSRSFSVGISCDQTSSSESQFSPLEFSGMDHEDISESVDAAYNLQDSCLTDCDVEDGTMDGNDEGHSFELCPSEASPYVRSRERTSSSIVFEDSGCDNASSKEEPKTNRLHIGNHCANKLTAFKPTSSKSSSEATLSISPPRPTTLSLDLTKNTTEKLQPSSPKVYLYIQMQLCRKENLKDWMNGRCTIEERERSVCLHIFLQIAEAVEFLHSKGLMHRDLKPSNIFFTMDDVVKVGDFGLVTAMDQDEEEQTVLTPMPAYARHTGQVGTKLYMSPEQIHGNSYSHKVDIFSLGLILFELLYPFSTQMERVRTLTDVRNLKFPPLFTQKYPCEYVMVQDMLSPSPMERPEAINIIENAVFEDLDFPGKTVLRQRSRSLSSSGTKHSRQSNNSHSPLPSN
Chain of Neuropeptide Y receptor type 1 (P25929 whole entry): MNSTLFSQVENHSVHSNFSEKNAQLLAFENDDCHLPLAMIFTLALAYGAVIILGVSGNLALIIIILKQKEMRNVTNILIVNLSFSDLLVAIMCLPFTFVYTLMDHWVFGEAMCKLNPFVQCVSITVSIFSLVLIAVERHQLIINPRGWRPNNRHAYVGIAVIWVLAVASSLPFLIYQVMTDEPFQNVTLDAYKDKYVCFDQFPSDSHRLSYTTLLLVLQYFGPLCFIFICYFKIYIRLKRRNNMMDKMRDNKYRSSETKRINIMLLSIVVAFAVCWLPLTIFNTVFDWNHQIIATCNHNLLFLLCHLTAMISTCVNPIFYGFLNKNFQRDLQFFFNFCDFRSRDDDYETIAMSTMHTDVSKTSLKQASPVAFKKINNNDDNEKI
Chain of Ras and Rab interactor 1/Tyrosine-protein kinase ABL1 (P00519 whole entry): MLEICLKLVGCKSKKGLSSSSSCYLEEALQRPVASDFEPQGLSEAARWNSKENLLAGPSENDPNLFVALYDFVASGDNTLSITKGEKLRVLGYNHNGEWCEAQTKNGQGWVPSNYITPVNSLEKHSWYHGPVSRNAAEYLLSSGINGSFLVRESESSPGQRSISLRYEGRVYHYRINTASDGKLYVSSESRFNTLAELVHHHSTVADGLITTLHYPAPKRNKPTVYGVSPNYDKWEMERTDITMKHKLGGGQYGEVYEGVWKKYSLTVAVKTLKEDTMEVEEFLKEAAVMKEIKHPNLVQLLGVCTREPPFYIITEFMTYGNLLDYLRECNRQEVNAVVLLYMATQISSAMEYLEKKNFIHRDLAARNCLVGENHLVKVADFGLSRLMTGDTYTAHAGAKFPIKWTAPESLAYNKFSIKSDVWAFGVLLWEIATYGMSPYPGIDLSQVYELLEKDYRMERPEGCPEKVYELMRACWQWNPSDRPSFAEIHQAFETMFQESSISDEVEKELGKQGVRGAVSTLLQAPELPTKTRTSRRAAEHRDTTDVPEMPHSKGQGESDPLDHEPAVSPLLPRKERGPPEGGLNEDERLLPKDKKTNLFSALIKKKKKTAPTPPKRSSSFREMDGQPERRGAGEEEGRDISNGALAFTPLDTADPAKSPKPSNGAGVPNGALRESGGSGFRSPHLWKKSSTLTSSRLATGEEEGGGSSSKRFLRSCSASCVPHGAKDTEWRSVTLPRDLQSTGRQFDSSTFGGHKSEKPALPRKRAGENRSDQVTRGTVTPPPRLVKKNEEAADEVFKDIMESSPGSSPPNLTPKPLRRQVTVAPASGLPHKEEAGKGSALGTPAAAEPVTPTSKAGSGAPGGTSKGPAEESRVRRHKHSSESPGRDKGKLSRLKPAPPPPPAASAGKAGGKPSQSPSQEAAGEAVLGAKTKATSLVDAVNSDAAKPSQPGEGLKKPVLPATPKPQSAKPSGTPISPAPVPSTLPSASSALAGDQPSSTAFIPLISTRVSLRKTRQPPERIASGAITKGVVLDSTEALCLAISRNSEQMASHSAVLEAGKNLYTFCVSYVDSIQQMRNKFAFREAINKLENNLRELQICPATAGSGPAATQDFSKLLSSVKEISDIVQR
Chain of Ras and Rab interactor 1/Tyrosine-protein kinase ABL1 (Q13671 whole entry): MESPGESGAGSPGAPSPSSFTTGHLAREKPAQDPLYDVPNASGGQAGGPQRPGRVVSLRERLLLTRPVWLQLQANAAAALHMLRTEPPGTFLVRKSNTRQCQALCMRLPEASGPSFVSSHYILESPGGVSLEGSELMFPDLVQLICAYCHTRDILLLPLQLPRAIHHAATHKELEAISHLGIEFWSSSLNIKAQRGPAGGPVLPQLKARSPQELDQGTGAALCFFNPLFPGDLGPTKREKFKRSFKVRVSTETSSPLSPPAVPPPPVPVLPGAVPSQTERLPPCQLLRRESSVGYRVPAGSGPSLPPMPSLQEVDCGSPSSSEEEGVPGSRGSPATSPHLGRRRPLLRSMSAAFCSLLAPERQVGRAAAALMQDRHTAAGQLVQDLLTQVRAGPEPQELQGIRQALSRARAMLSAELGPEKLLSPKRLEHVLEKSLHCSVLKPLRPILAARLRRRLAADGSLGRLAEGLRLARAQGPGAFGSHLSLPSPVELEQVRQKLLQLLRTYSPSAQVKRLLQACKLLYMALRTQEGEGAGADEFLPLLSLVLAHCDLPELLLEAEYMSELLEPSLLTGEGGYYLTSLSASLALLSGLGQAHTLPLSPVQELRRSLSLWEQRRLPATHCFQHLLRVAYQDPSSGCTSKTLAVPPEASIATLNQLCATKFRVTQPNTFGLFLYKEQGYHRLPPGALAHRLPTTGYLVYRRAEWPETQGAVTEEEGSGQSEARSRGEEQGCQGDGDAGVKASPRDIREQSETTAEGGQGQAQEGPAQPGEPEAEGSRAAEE
Chain of Cytochrome P450 2D6 (P10635 whole entry): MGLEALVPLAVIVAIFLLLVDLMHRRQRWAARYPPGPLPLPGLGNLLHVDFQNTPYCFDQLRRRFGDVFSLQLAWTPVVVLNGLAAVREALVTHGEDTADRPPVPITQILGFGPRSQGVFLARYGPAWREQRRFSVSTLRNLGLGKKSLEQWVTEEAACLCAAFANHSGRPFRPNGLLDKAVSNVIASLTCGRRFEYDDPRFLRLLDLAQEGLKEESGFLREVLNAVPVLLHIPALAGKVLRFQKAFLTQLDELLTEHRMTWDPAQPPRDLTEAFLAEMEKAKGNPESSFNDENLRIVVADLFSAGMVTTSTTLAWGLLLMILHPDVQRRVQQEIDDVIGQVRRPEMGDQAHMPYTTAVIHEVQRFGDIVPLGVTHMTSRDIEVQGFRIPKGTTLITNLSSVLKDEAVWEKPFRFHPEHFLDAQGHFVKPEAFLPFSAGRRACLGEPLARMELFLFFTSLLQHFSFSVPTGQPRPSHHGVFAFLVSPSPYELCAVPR
Chain of Nonstructural protein 1 (Q194T2 whole entry): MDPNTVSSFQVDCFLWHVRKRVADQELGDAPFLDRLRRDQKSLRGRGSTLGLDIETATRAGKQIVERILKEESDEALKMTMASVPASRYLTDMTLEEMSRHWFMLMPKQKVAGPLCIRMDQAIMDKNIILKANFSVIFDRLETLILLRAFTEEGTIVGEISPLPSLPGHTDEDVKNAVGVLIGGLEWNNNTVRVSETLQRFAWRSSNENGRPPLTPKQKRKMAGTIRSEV
Chain of Photoreceptor-specific nuclear receptor (Q9Y5X4 whole entry): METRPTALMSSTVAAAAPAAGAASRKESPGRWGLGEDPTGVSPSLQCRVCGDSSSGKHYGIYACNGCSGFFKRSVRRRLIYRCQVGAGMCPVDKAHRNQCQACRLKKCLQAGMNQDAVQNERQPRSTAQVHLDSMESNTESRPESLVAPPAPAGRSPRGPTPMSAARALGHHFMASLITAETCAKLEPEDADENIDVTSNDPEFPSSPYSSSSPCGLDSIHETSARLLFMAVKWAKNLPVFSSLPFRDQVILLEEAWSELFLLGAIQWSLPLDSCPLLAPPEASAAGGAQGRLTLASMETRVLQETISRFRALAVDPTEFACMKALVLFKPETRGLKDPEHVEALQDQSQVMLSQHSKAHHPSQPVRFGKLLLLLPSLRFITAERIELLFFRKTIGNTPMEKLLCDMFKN
Chain of Phospholipase A2 (P04054 whole entry): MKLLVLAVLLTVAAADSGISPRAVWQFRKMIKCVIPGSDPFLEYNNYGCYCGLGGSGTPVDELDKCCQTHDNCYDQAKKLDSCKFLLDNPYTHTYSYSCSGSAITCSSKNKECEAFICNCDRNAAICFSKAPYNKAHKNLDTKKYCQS

O=C(O)c1ccc(OCc2cn3ccccc3n2)cc1
EC50 [1]: > 35.4 µM (not active) | EC50 [2]: > 35.4 µM (not active) | IC50 [3]: > 83.2 µM (inactive) | EC50 [4]: > 35.4 µM (not active) | IC50 [5]: > 109 µM (inactive)

O=C(OCC1OC(n2ncc(=O)[nH]c2=O)C(OC(=O)c2ccccc2)C1OC(=O)c1ccccc1)c1ccccc1 (stereo not given)
EC50 [6]: 13.5 µM (active) | IC50 [7]: 12.2 µM (active) | EC50 [8]: > 120 µM (not active) | EC50 [9]: 17.7 µM (active)

CC1(C)CC[C@@]2(C(=O)O)C(C1)C1=CCC3[C@@]4(C)CC[C@H](O)C(C)(C)C4CC[C@@]3(C)[C@]1(C)C[C@H]2O (stereo not given in full)
EC50 [10]: 2.33 µM (active) | EC50 [11]: 2.67 µM (active) | AC50 [12]: 7.33 µM (active)

Oc1cc2c(cc1C(c1ccc(F)cc1)N1CCCC1)OCO2 (stereo not given)
IC50 [13]: 23.3 µM (not active)

CC(C)[C@@H](CC(=O)N[C@@H]1CCCC[C@H]1C(=O)N[C@H](CC(=O)N[C@@H](CCC(=O)O)CC(=O)O)Cc1ccccc1)NC(=O)C[C@H](CO)NC(=O)[C@@H]1CNCC[C@H]1N
AC50 [14]: 31.6 µM (inconclusive)

CCc1nnc(NS(=O)(=O)c2ccc(N/C=C\C(=O)c3ccc4ccccc4c3)cc2)s1
IC50 [15]: 9.13 µM (active) | IC50 [16]: 5.19 µM (active) | IC50 [17]: 29.7 µM (active) | IC50 [18]: 62.9 µM (active) | IC50 [19]: 11.1 µM (active)

CC(=O)N1CCc2cc(S(=O)(=O)CCC(=O)N3CCN(C(=O)c4ccco4)CC3)ccc21
EC50 [20]: > 50 µM (not active)

c1ccc(N2CCN(c3nc(-c4ccccn4)nc4ccccc34)CC2)cc1
EC50 [21]: 8.15 µM (active) | AC50 [22]: 3.01 µM (active) | IC50 [23]: 2.4 µM (active) | IC50 [24]: 3.59 µM (active) | EC50 [25]: 0.433 µM (active) | IC50 [26]: 1.67 µM (active) | IC50 [27]: 6.28 µM (active) | IC50 [28]: > 22.3 µM (not active)

O=C(O)CSc1ncnc2scc(-c3ccc(Br)cc3)c12
EC50 [29]: > 55.7 µM (not active) | EC50 [30]: > 55.7 µM (not active)

CCN1C(C)=C(C(=O)OC)C(c2ccccc2)N2C(=O)[C@](O)(C(=O)OC)C(c3ccccc3)C(C(=O)c3ccccc3)=C12 (stereo not given in full)
AC50 [31]: 3.16 µM (inconclusive)

C[C@@H]1NC(=O)N[C@@H]1CCCCCC(=O)O
IC50 [32]: > 89.2 µM (inactive) | EC50 [33]: 7.8 µM (active) | EC50 [34]: 11.9 µM (inactive) | IC50 [35]: 1.57 µM (active) | EC50 [36]: 7.41 µM (active) | IC50 [37]: 0.0101 µM (active) | IC50 [38]: 1.38 µM (active) | IC50 [39]: 0.149 µM (active)

CC(C)(C)c1ccc(Oc2ccc(N)cn2)cc1 [LIMANTRAFIN]
EC50 [6]: < 0.1 µM (active) | EC50 [40]: 1.05 µM (active) | EC50 [8]: < 0.1 µM (active) | EC50 [41]: 0.803 µM (active) | EC50 [42]: 2.75 µM (active) | EC50 [9]: 5.68 µM (active)
